We go through 13 compounds from ChEMBL document CHEMBL1139263, “New lycorine-type alkaloid from Lycoris traubii and evaluation of antitrypanosomal and antimalarial activities of lycorine derivatives” (Bioorg Med Chem, 2008).

Values after ≈ are worked out from the molar mass of the structure shown.

Experiment [1] can be described thus: Selectivity index ratio IC50 for human MRC5 cells to IC50 for Trypanosoma brucei brucei GUTat3.1. Type of experiment: functional.
Experiment [2] concerns Plasmodium falciparum. The experiment in a line: Antimalarial activity against drug-resistant Plasmodium falciparum K1 infected human erythrocytes after 72 hrs. Type of experiment: functional, organism-based. Particulars: K1, 72 h.
In experiment [3] the test system is Plasmodium falciparum. The experiment in a line: Antimalarial activity against drug-sensitive Plasmodium falciparum FCR3 infected human erythrocytes after 72 hrs. The experiment is classed as functional, organism-based. Particulars: FCR3, 72 h.
A short description of experiment [4]: Selectivity index ratio IC50 for human MRC5 cells to IC50 for Plasmodium falciparum K1. Type of experiment: functional.
A short description of experiment [5]: Selectivity index ratio IC50 for human MRC5 cells to IC50 for Plasmodium falciparum FCR3. Type of experiment: functional.
A further experiment relates to MRC5. Briefly: Cytotoxicity against human MRC5 cells after 7 days by MTT assay. Particulars: MRC5, 168 h. Type of experiment: cell-based. For orientation: Tetrazolium assays rely on reduction of a dye to a coloured formazan, in cell work by metabolically active cells.
Experiment [6] deals with Trypanosoma brucei brucei. Briefly: Antitrypanosomal activity against Trypanosoma brucei brucei GUTat3.1 after 72 hrs by alamar blue assay. Type of experiment: functional, organism-based. The note with it: GUTat3.1, 72 h.
The test system of experiment [7] is Trypanosoma brucei rhodesiense. Briefly: Antitrypanosomal activity against Trypanosoma brucei rhodesiense STIB900 trypomastigotes. The experiment is classed as functional, organism-based.
Experiment [8] has as its system Plasmodium falciparum. Briefly: Antimalarial activity against Plasmodium falciparum D10. The experiment is classed as functional, organism-based.
Experiment [9] has as its system Plasmodium falciparum. Briefly: Antimalarial activity against Plasmodium falciparum FAC8. Type of experiment: functional, organism-based.

One may read the IC50 as the midpoint of a concentration-inhibition curve. For `CC(=O)O[C@H]1[C@H]2c3cc4c(cc3CN3CCC(=C[C@@H]1O)[C@H]23)OCO4`, the figures for the “Ratio IC50” value in experiment [1], in experiment [4] and in [5] were 0.2, 3.6 and 4.3, respectively. Besides, the IC50 stood at 0.36 µg/mL (≈ 1.09 µM) with Plasmodium falciparum [2], 0.3 µg/mL (≈ 0.911 µM) with Plasmodium falciparum [3], 1.29 µg/mL (≈ 3.92 µM) with MRC5 and 5.22 µg/mL (≈ 15.8 µM) in experiment [6].

For the compound `CC(=O)O[C@H]1[C@H]2c3cc4c(cc3CN3CCC(=C[C@@H]1OC(C)=O)[C@H]23)OCO4`, the “Ratio IC50” value in [1] is less than 1.4; in experiment [4], 2.4. Moreover, the IC50 with Plasmodium falciparum [2] is 7.6 µg/mL (≈ 20.5 µM); in [7], 1 µg/mL (≈ 2.69 µM); with Plasmodium falciparum [8], 1 µg/mL (≈ 2.69 µM); in the experiment with Plasmodium falciparum [9], 1 µg/mL (≈ 2.69 µM); with MRC5 it was 18.1 µg/mL (≈ 48.8 µM); in experiment [6], greater than 12.5 µg/mL.

Turning to `CCC(=O)O[C@H]1[C@H]2c3cc4c(cc3CN3CCC(=C[C@@H]1O)[C@H]23)OCO4`, the “Ratio IC50” value is 3.7 in [1], 13.5 in experiment [4] and 16.6 in experiment [5]. The IC50 was determined as 0.37 µg/mL (≈ 1.08 µM) in the experiment on Plasmodium falciparum [2], 0.3 µg/mL (≈ 0.874 µM) with Plasmodium falciparum [3], 4.99 µg/mL (≈ 14.5 µM) with MRC5 and 1.34 µg/mL (≈ 3.9 µM) in experiment [6].

Consider `CCCC(=O)O[C@H]1[C@H]2c3cc4c(cc3CN3CCC(=C[C@@H]1OC(=O)CCC)[C@H]23)OCO4`, for which the IC50 in the experiment with Plasmodium falciparum [2] worked out at 0.67 µg/mL (≈ 1.57 µM); in the experiment on Plasmodium falciparum [3], 0.53 µg/mL (≈ 1.24 µM). Also, the “Ratio IC50” value turned out to be 21.7 in [4] and 27.5 in [5].

Consider `CCCC(=O)O[C@H]1[C@H]2c3cc4c(cc3CN3CCC(=C[C@@H]1O)[C@H]23)OCO4`, for which the “Ratio IC50” value is given as 2.6 in experiment [1], 8.8 in [4] and 11.3 in experiment [5]. In addition, the IC50 in the experiment on Plasmodium falciparum [2] worked out at 0.41 µg/mL (≈ 1.15 µM); in the experiment with Plasmodium falciparum [3], 0.32 µg/mL (≈ 0.895 µM); in the experiment on MRC5, 3.6 µg/mL (≈ 10.1 µM); in [6], 1.38 µg/mL (≈ 3.86 µM).

For `C[C@@H](O)CC(=O)O[C@@H]1[C@H]2c3cc4c(cc3CN3CCC(=C[C@@H]1O)[C@H]23)OCO4`, the “Ratio IC50” value in experiment [1] is reported as 2.6; in experiment [4] it was 10.2; in experiment [5], 13. The IC50 with Plasmodium falciparum [2] was found to be 0.62 µg/mL (≈ 1.66 µM); with Plasmodium falciparum [3], 0.49 µg/mL (≈ 1.31 µM); with MRC5, 6.35 µg/mL (≈ 17 µM); in [6] it was 2.45 µg/mL (≈ 6.56 µM).

`CC(=O)O[C@H]1C=C2CCN3Cc4cc5c(cc4[C@H]([C@@H]1O)[C@@H]23)OCO5`: the figures for the “Ratio IC50” value in experiment [1] and in [4] were 40.7 and 0.7, respectively. Moreover, the IC50 with Plasmodium falciparum [2] stood at 8.21 µg/mL (≈ 24.9 µM); with MRC5, 6.11 µg/mL (≈ 18.6 µM); in experiment [6], 0.15 µg/mL (≈ 0.455 µM).

With `CCC(=O)O[C@H]1[C@H]2c3cc4c(cc3CN3CCC(=C[C@@H]1OC(=O)CC)[C@H]23)OCO4`, the half-maximal inhibitory concentration (IC50) with Plasmodium falciparum [2] was 4.2 µg/mL (≈ 10.5 µM); in the experiment on MRC5, greater than 23.8 µg/mL. The “Ratio IC50” value in experiment [4] is greater than 23.8.

With `C[C@H](O)CC(=O)O[C@H]1[C@H]2c3cc4c(cc3CN3CCC(=C[C@@H]1O)[C@H]23)OCO4`, the “Ratio IC50” value in experiment [1] is listed as 4.3; in [4], 13.5; in experiment [5], 18. The IC50 in the experiment with Plasmodium falciparum [2] was found to be 0.6 µg/mL (≈ 1.61 µM); in the experiment with Plasmodium falciparum [3], 0.45 µg/mL (≈ 1.21 µM); in the experiment with MRC5 it was 8.11 µg/mL (≈ 21.7 µM); in [6], 1.9 µg/mL (≈ 5.09 µM).

As for `C[C@@H]1CC[C@H]2[C@@H](C)C(=O)O[C@@H]3O[C@@]4(C)CC[C@@H]1[C@]32OO4` [ARTEMISININ], the values for the IC50 with Plasmodium falciparum [2] and with Plasmodium falciparum [3] were 0.0057 µg/mL (≈ 0.0202 µM) and 0.006 µg/mL (≈ 0.0213 µM), respectively. Besides, the “Ratio IC50” value in [4] came out at 7924.5; in experiment [5], 7528.3.

Consider `NCCCC(N)(C(=O)O)C(F)F` (stereo not drawn) [EFLORNITHINE], for which the “Ratio IC50” value in [1] is listed as greater than 44. The results for the IC50 (in the experiment on MRC5; in [6]) were greater than 100 µg/mL and 2.27 µg/mL (≈ 12.5 µM), respectively.

Consider `N=C(N)c1ccc(OCCCCCOc2ccc(C(=N)N)cc2)cc1` [PENTAMIDINE], for which, in experiment [1], the “Ratio IC50” value turned out to be 3614. Further, the IC50 came out at 5.71 µg/mL (≈ 16.8 µM) in the experiment with MRC5 and 0.00158 µg/mL (≈ 0.00464 µM) in experiment [6].

`Cc1ccc(C(=O)Nc2ccc(S(=O)(=O)O)c3cc(S(=O)(=O)O)cc(S(=O)(=O)O)c23)cc1NC(=O)c1cccc(NC(=O)Nc2cccc(C(=O)Nc3cc(C(=O)Nc4ccc(S(=O)(=O)O)c5cc(S(=O)(=O)O)cc(S(=O)(=O)O)c45)ccc3C)c2)c1` [SURAMIN]: the “Ratio IC50” value in experiment [1] is greater than 63. The IC50 in the experiment on MRC5 is greater than 100 µg/mL; in experiment [6], 1.58 µg/mL (≈ 1.22 µM).
